Data as given in paper PMC8919384 (ACS Medicinal Chemistry Letters, 2022).
Converted amounts (≈) assume the structure as drawn. Values belong to the compound of their own block, whether it stands above or below them.

What was measured:
Solubility = format: physicochemical; conditions: pH 1.2, simulated gastric fluid
A1 AR = target: T1, A1 AR (Homo sapiens, UniProt P30542); conditions: binding Ki
T1 sequence (P30542 1-326): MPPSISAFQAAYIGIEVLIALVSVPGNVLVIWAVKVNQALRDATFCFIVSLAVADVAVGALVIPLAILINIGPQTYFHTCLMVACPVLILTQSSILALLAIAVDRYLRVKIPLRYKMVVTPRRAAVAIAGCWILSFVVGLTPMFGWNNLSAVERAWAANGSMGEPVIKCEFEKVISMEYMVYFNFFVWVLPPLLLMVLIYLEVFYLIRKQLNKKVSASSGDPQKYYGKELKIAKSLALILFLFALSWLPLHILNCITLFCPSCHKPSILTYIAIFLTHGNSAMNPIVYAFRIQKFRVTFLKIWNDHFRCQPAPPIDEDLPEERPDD

[1] = tested on: adult rat model of focal cerebral ischemia; conditions: cited from earlier work
lung metastasis model = conditions: cited from earlier work
melanoma-bearing mice = conditions: combined with anti-CTLA-4 mAb; cited from earlier work

- solubility (Solubility): 1990 µg/mL (≈ 6.45 mM)
SMILES: Cn1cc(-c2cnc(N)n3nc(-c4ccco4)nc23)ccc1=O [1a]

- selectivity for A1 AR over the A2A AR (A1 AR): two-fold
SMILES: Cc1cnc(-c2nc3c(-c4ccc(=O)n(C)c4)cnc(N)n3n2)s1 [1d]

SMILES: Nc1nc2c(cnn2CCc2ccccc2)c2nc(-c3ccco3)nn12 [SCH58261]
- ischemic brain damage [1]: reduced ischemic brain damage

SMILES: Nc1nc(NCCc2ccc(O)cc2)nc2nc(-c3ccco3)nn12 [ZM241385]
- tumor growth in a lung metastasis model (lung metastasis model): significantly inhibited tumor growth
- tumor growth in melanoma-bearing mice (melanoma-bearing mice): remarkable delay in tumor growth
